Reference: patent publication US20230148005A1, “MACROCYCLIC COMPOUNDS AND USES THEREOF” (THESEUS PHARMACEUTICALS, INC., priority 2020, published 2023)
pIC50: −log10 of the molar value. Where two headings read alike, the source gives them in different places.

What was measured:
EGFR^L858R/T790M/C^797S = EGFR^L858R/T790M/C^797S (Homo sapiens, UniProt P00533, C797S/L858R/T790M); test: in vitro kinase assay (HTRF KinEASE-TK kit), LTC; type: biochemical; conditions: kinase inhibition
From the text: (§1) Assays using an in vitro kinase assay kit (HTRF KinEASE-TK kit) can be used to study the inhibitory activity of compounds described herein with respect to EGFR mutants such as EGFR^L858R, EGFR^L58R/T790M, and EGFR^L858R/T790M/C^797S.

EGFR^L58R/T790M = EGFR^L58R/T790M (Homo sapiens, UniProt P00533, L858R/T790M); test: in vitro kinase assay (HTRF KinEASE-TK kit), LT; type: biochemical; conditions: kinase inhibition
From the text: as §1

EGFR^L858R = EGFR^L858R (Homo sapiens, UniProt P00533, L858R); test: in vitro kinase assay (HTRF KinEASE-TK kit), L; type: biochemical; conditions: kinase inhibition
From the text: as §1

[1] = molecular target: Ba/F3 EGFR-Del19/T790M/C797S (Homo sapiens, UniProt P00533, T790M/C797S, cells depend on it, form not given); test: Ba/F3 viability assay (CellTiter-Glo), DTC; type: cell-based; conditions: anti-proliferation, read-out: BaF3 DTC IC50
From the text: (§2) Inhibition of cell proliferation can be studied using Ba/F3 viability assays, including the Promega CellTiter-Glo cell viability assay. This assay can be used to study the effect of compounds described herein in the following assays: (1) Ba/F3 Parental; (2) Ba/F3 EGFR-Del19/T790M; (3); Ba/F3 EGFR-Del19/C797S; and (4) Ba/F3 EGFR-Del19/T790M/C797S.

Ba/F3 EGFR-Del19/T790M = Ba/F3 EGFR-Del19/T790M (Homo sapiens, UniProt P00533, T790M, cells depend on it, form not given); test: Ba/F3 viability assay (CellTiter-Glo), DT; type: cell-based; conditions: anti-proliferation, read-out: BaF3 DT IC50
From the text: as §2

Ba/F3 EGFR-Del19/C797S = Ba/F3 EGFR-Del19/C797S (Homo sapiens, UniProt P00533, C797S, cells depend on it, form not given); test: Ba/F3 viability assay (CellTiter-Glo), DC; type: cell-based; conditions: anti-proliferation, read-out: BaF3 DC IC50
From the text: as §2

Ba/F3 Parental = test: Ba/F3 viability assay (CellTiter-Glo), parental; type: cell-based
From the text: as §2

[2] = Mus musculus, BaF3, anti-proliferation
[3] = anti-proliferation, read-out: BaF3 parental IC50

Sequence of Ba/F3 EGFR-Del19/C797S (P00533 with tags, fused parts or gaps DEL746-750/C797S, form open): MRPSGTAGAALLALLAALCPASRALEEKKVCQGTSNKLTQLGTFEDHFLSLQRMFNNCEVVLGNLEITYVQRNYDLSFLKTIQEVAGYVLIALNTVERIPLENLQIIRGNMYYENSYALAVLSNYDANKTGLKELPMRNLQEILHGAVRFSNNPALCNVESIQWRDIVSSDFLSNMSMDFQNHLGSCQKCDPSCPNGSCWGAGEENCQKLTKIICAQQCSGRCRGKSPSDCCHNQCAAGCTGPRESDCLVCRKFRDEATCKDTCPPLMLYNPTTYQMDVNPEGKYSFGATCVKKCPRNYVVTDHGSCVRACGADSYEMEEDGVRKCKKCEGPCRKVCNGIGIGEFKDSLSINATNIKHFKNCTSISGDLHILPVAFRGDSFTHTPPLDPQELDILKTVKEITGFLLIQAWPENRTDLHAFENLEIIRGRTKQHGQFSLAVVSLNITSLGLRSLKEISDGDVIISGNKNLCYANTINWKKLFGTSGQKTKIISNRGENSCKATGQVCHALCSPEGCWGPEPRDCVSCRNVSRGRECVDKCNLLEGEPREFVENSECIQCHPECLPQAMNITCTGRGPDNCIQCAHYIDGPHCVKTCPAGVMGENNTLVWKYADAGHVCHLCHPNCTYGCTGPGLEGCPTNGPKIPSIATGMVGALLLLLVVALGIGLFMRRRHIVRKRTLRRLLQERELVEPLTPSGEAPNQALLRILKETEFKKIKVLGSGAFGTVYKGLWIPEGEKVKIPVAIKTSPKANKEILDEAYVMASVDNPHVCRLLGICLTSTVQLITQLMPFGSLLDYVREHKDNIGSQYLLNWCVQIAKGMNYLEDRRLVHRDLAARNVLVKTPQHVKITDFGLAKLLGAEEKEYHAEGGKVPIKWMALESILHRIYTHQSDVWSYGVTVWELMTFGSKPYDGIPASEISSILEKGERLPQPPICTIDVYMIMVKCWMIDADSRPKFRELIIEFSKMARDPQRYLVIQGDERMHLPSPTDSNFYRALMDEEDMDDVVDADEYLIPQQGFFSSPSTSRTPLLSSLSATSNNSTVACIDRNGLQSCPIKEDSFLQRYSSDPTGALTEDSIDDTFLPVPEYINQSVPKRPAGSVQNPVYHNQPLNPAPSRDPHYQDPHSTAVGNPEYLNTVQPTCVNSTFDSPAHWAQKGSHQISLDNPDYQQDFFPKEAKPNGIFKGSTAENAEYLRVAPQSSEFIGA
Sequence of EGFR^L858R (P00533 25-1210 L858R): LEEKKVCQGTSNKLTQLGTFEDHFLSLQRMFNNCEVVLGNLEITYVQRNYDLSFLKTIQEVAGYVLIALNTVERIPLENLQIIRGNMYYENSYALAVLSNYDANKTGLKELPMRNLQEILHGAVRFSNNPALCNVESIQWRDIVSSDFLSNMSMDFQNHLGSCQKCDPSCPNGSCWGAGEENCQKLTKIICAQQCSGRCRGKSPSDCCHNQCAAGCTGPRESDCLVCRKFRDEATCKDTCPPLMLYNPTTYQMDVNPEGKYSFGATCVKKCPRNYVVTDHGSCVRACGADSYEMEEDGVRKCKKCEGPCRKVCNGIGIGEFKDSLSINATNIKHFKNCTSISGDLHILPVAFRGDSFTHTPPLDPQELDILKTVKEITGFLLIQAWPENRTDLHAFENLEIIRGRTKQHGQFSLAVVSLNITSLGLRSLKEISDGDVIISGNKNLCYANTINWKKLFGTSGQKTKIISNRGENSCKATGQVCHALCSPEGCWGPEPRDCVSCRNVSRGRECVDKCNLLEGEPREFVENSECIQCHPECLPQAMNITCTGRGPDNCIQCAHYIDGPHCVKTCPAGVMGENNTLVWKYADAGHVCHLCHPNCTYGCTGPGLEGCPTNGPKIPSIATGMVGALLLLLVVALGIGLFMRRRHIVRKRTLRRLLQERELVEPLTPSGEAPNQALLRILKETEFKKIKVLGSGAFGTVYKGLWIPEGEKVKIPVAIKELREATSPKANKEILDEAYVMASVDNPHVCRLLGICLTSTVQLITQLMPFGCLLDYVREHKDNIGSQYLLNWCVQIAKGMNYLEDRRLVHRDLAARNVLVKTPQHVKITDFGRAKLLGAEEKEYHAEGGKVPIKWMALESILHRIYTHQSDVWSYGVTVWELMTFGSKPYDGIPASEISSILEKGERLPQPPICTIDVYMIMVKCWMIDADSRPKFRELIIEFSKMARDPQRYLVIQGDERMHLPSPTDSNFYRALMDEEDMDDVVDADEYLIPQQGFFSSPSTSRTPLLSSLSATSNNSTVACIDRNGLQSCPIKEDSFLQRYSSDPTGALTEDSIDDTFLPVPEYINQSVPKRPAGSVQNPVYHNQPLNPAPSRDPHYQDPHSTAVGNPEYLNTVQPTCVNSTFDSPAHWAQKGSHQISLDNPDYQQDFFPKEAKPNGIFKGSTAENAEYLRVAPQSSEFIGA
Sequence of Ba/F3 EGFR-Del19/T790M/C797S (P00533 with tags, fused parts or gaps DEL746-750/T790M/C797S, form open): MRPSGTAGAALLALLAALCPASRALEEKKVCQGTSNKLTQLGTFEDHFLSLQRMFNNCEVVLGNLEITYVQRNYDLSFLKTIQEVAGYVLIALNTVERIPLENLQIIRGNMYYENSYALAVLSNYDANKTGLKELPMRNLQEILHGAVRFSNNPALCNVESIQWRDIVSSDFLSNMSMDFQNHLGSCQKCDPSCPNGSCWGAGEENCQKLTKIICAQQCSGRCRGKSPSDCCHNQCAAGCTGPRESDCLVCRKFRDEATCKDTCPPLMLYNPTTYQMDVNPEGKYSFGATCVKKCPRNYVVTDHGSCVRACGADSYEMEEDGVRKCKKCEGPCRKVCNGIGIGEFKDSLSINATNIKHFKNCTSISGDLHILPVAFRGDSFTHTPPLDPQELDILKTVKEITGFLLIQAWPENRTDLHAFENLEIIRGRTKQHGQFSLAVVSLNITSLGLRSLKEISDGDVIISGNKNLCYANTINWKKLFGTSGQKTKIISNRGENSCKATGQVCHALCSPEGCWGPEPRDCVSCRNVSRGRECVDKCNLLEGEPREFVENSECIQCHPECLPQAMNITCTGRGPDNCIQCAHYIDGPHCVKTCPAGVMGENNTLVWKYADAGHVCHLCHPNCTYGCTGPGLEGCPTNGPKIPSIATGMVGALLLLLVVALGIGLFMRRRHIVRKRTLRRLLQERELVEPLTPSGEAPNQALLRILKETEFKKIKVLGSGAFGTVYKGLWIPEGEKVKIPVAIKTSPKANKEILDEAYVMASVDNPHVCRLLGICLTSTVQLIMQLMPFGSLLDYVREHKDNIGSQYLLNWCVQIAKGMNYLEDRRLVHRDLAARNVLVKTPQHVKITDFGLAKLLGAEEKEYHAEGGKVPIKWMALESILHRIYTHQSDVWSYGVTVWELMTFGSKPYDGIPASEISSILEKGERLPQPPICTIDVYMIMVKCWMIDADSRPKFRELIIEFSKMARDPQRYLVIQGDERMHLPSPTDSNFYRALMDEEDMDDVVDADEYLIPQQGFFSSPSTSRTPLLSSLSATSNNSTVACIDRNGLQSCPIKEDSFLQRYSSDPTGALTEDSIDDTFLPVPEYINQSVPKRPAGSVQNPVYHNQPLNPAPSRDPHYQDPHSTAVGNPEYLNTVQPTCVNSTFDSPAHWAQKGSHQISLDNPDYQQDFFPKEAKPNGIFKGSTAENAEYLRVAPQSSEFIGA
Sequence of EGFR^L858R/T790M/C^797S (P00533 25-1210 T790M/C797S/L858R): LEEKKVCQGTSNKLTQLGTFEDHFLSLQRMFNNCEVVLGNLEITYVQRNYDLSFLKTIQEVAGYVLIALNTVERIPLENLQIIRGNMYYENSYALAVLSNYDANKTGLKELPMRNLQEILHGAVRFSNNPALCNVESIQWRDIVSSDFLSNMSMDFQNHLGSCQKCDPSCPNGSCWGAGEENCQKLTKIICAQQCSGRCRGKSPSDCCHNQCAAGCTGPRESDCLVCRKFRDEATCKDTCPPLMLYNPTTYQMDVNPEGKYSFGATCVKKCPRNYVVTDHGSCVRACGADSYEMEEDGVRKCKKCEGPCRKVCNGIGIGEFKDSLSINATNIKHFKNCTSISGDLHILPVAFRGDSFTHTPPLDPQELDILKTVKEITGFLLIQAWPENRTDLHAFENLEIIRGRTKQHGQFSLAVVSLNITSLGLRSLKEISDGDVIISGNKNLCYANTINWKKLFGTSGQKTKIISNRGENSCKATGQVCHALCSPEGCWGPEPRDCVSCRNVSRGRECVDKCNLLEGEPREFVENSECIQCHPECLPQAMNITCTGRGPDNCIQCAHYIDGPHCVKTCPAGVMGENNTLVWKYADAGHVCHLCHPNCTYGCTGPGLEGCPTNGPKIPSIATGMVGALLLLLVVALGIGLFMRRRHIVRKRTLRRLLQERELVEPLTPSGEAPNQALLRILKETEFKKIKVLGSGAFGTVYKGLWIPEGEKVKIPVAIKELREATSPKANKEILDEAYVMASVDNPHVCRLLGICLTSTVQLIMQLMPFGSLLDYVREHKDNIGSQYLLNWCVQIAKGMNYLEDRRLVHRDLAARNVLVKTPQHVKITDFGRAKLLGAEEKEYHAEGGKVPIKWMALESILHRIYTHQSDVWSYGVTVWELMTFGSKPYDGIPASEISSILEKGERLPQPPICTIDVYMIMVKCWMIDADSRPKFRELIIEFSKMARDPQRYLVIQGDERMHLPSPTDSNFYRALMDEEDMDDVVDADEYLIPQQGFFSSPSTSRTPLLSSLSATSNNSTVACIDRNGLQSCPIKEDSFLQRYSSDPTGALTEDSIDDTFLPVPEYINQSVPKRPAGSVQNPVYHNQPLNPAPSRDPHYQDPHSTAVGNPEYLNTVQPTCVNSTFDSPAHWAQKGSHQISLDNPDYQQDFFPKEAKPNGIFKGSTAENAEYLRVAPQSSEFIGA

SMILES	pIC50 (EGFR^L858R/T790M/C^797S)	pIC50 (EGFR^L58R/T790M)	pIC50 (EGFR^L858R)	GI50 [1]	GI50 (Ba/F3 EGFR-Del19/T790M)	GI50 (Ba/F3 EGFR-Del19/C797S)	pIC50 (Ba/F3 Parental; [2])	pIC50 (Ba/F3 Parental; [3])
C[C@H]1CCOc2c(cnn2C)-c2nccc(n2)Nc2cc3c(cn2)c(-c2cccc(CN(C)C)c2)nn31 [(165)]	> 8.00	> 8.00	> 8.00	< 10 nM	< 10 nM	< 10 nM	6.00 to 7.00	
C[C@H]1CCOc2c(cnn2C)-c2nccc(n2)Nc2cc3c(cn2)c(-c2ccc(CN4CCN(C)CC4)cc2)nn31 [(172)]	> 8.00	> 8.00	> 8.00	< 10 nM	< 10 nM	< 10 nM	7.00 to 8.00	
Cc1cc(OCCN(C)C)cc(-c2nn3c4cc(ncc24)Nc2ccnc(n2)-c2cnn(C)c2OCC[C@@H]3C)c1 [(134)]	> 8.00	> 8.00	> 8.00	10 to 100 nM	10 to 100 nM	10 to 100 nM	6.00 to 7.00	
CC1CCOc2c(cnn2C)-c2nccc(n2)Nc2cc3c(cn2)c(N2CC(C(C)(C)O)C2)nn31 (centres unmarked) [(8)]	> 8.00	> 8.00	7.00 to 8.00	10 to 100 nM	10 to 100 nM	10 to 100 nM	6.00 to 7.00	
C[C@H]1CCOc2c(cnn2C)-c2nccc(n2)Nc2cc3c(cn2)c(-c2csc(CN4CCN(C)CC4)n2)nn31 [(103)]	> 8.00	> 8.00	> 8.00	< 10 nM	< 10 nM	10 to 100 nM	6.00 to 7.00	
C[C@H]1CCOc2c(cnn2C)-c2nccc(n2)Nc2cc3c(cn2)c(-c2ccc(CN(C)C)n2C)nn31 [(127)]	> 8.00	> 8.00	> 8.00	< 10 nM	< 10 nM	< 10 nM	6.00 to 7.00	
CCN1CCc2c(cc(-c3nn4c5cc(ncc35)Nc3ccnc(n3)-c3cnn(C)c3OCC[C@@H]4C)n2C)C1C (some centres unmarked) [(161)]	> 8.00	> 8.00	> 8.00	< 10 nM	< 10 nM	10 to 100 nM	6.00 to 7.00	
CC1CCCCOc2c(cnn2C)-c2nccc(n2)Nc2cc3c(cn2)c(N2CCC2)nn31 (centres unmarked) [(58)]	> 8.00	> 8.00	7.00 to 8.00	10 to 100 nM	10 to 100 nM	10 to 100 nM	≤ 6.00	
C[C@H]1CCOc2c(cnn2C)-c2nccc(n2)Nc2cc3c(cn2)c(-c2cc4c(n2C)CCCN(C)C4)nn31 [(185)]	> 8.00	> 8.00	> 8.00	10 to 100 nM	10 to 100 nM	10 to 100 nM	6.00 to 7.00	
C[C@H]1CCOc2c(cnn2C)-c2nccc(n2)Nc2cc3c(cn2)c(N2CCC2)nn31 [(70)]	> 8.00	> 8.00	> 8.00	10 to 100 nM	< 10 nM	10 to 100 nM		6.00 to 7.00
CC(C)N(C)Cc1ccc(-c2nn3c4cc(ncc24)Nc2ccnc(n2)-c2cnn(C)c2OCC[C@@H]3C)n1C [(189)]	> 8.00	> 8.00	> 8.00	< 10 nM	< 10 nM	< 10 nM	6.00 to 7.00	
CC1CCOc2c(cnn2C)-c2nccc(n2)Nc2cc3c(cn2)c(N2CCC2)nn31 (centres unmarked) [(33), 17-(azetidin-1-yl)-20,27-dimethyl-30-oxa-21,22,23,24,25,26,27,28-octazapentacyclopentacosa-2,4(14),5(22),6(23),12(24),13(15),16(18),17(25),19(21)-nonaene]	> 8.00	> 8.00	7.00 to 8.00	10 to 100 nM	10 to 100 nM	10 to 100 nM	≤ 6.00	
CCN(CC)Cc1ccc(-c2nn3c4cc(ncc24)Nc2ccnc(n2)-c2cnn(C)c2OCC[C@@H]3C)n1C [(137)]	> 8.00	> 8.00	> 8.00	< 10 nM	< 10 nM	< 10 nM	6.00 to 7.00	
C[C@@H]1CCCOc2c(cnn2C)-c2nccc(n2)Nc2cc3c(cn2)c(N2CCC2)nn31 [(77)]	6.00 to 7.00	7.00 to 8.00	≤ 6.00	100 to 1000 nM	≥ 1000 nM	100 to 1000 nM		≤ 6.00
CCn1cc(-c2nn3c4cc(ncc24)Nc2ccnc(n2)-c2cnn(C)c2OCCC3C)cc1CN1CCN(C)CC1 (centres unmarked) [(76)]	> 8.00	> 8.00	> 8.00	< 10 nM	< 10 nM	< 10 nM	7.00 to 8.00	
C[C@H]1CCOc2c(cnn2C)-c2nccc(n2)Nc2cc3c(cn2)c(-c2ccc(CN4CC[C@@H](N(C)C)C4)n2C)nn31 [(186)]	> 8.00	> 8.00	> 8.00	< 10 nM	< 10 nM	< 10 nM	6.00 to 7.00	
CCN(CC)CCOc1cc(-c2nn3c4cc(ncc24)Nc2ccnc(n2)-c2cnn(C)c2OCC[C@@H]3C)ccc1Cl [(153)]	> 8.00	> 8.00	> 8.00	10 to 100 nM	10 to 100 nM	10 to 100 nM	6.00 to 7.00	
Cc1nc(-c2nn3c4cc(ncc24)Nc2ccnc(n2)-c2cnn(C)c2OCC[C@@H]3C)sc1CN1CCOCC1 [(174)]	> 8.00	> 8.00	> 8.00	< 10 nM	< 10 nM	< 10 nM	6.00 to 7.00	
C[C@H]1CCOc2c(cnn2C)-c2nccc(n2)Nc2cc3c(cn2)c(-c2cnn(CCCN4CCOCC4)c2)nn31 [(115)]	> 8.00	> 8.00	7.00 to 8.00	10 to 100 nM	10 to 100 nM	10 to 100 nM	6.00 to 7.00	
CCn1cc(-c2nn3c4cc(ncc24)Nc2ccnc(n2)-c2cnn(C)c2OCC[C@@H]3C)cc1CN1CCOCC1 [(148)]	> 8.00	> 8.00	> 8.00	< 10 nM	< 10 nM	< 10 nM	6.00 to 7.00	
C[C@H]1CCOc2c(cnn2C)-c2nccc(n2)Nc2cc3c(cn2)c(-c2cnn(CCN4CCOCC4)c2)nn31 [(116)]	> 8.00	> 8.00	7.00 to 8.00	10 to 100 nM	10 to 100 nM	10 to 100 nM	6.00 to 7.00	
CCCN1CCN(Cc2cnc(-c3nn4c5cc(ncc35)Nc3ccnc(n3)-c3cnn(C)c3OCC[C@@H]4C)s2)CC1 [(142)]	> 8.00	> 8.00	> 8.00	< 10 nM	10 to 100 nM	10 to 100 nM	6.00 to 7.00	
C[C@H]1CCOc2c(cnn2C)-c2nccc(n2)Nc2cc3c(cn2)c(-c2cc(CN4CCN(C)CC4)n(C)n2)nn31 [(95)]	> 8.00	> 8.00	> 8.00	10 to 100 nM	10 to 100 nM	10 to 100 nM	6.00 to 7.00	
CC1CCCOc2c(cnn2C)-c2nccc(n2)Nc2cc3c(cn2)c(-c2nnc(CN4CCN(C)CC4)o2)nn31 (centres unmarked) [(94)]	> 8.00	> 8.00	6.00 to 7.00	100 to 1000 nM	100 to 1000 nM	100 to 1000 nM	≤ 6.00	
CN(C)CC1CCN(c2nn3c4cc(ncc24)Nc2ccnc(n2)-c2cnn(C)c2OCCC3)C1 (centres unmarked) [(13)]	> 8.00	> 8.00	7.00 to 8.00	10 to 100 nM	10 to 100 nM	100 to 1000 nM	6.00 to 7.00	
CC1COc2c(cnn2C)-c2nccc(n2)Nc2cc3c(cn2)c(N2CCC2)nn3C1 (centres unmarked) [(6)]	> 8.00	> 8.00	7.00 to 8.00	10 to 100 nM	10 to 100 nM	10 to 100 nM	6.00 to 7.00	
CC1CCCOc2c(cnn2C)-c2nccc(n2)Nc2cc3c(cn2)c(-c2ccnn2C)nn31 (centres unmarked) [(75)]	> 8.00	> 8.00	7.00 to 8.00	10 to 100 nM	10 to 100 nM	10 to 100 nM	6.00 to 7.00	
C[C@H]1CCOc2c(cnn2C)-c2nccc(n2)Nc2cc3c(cn2)c(-c2cccc(OCCN(C)C)c2)nn31 [(110)]	> 8.00	> 8.00	> 8.00	< 10 nM	< 10 nM	< 10 nM	6.00 to 7.00	
CCn1c(CN(C)C)ccc1-c1nn2c3cc(ncc13)Nc1ccnc(n1)-c1cnn(C)c1OCC[C@@H]2C [(191)]	> 8.00	> 8.00	> 8.00	< 10 nM	10 to 100 nM	< 10 nM	6.00 to 7.00	
